Data taken from patent US7750003B2, “Compounds-943” (AstraZeneca AB, priority 2006, dated 2010).

Target: recombinant mTOR (FLAG-tagged, residues 1362-2549) (Homo sapiens, UniProt P42345)
Assay: In vitro mTOR kinase assay (Test (a), AlphaScreen)
Type: biochemical
Conditions: ATP 20 μM, read-out: Test (a): IC50 versus mTOR kinase
In short: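 AlphaScreen read-out: a phospho-T389 p70 S6K antibody on acceptor beads captures the phosphorylated biotin-peptide on donor beads, with signal loss indicating inhibition.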

recombinant mTOR (FLAG-tagged, residues 1362-2549), sequence (P42345 1362-2549): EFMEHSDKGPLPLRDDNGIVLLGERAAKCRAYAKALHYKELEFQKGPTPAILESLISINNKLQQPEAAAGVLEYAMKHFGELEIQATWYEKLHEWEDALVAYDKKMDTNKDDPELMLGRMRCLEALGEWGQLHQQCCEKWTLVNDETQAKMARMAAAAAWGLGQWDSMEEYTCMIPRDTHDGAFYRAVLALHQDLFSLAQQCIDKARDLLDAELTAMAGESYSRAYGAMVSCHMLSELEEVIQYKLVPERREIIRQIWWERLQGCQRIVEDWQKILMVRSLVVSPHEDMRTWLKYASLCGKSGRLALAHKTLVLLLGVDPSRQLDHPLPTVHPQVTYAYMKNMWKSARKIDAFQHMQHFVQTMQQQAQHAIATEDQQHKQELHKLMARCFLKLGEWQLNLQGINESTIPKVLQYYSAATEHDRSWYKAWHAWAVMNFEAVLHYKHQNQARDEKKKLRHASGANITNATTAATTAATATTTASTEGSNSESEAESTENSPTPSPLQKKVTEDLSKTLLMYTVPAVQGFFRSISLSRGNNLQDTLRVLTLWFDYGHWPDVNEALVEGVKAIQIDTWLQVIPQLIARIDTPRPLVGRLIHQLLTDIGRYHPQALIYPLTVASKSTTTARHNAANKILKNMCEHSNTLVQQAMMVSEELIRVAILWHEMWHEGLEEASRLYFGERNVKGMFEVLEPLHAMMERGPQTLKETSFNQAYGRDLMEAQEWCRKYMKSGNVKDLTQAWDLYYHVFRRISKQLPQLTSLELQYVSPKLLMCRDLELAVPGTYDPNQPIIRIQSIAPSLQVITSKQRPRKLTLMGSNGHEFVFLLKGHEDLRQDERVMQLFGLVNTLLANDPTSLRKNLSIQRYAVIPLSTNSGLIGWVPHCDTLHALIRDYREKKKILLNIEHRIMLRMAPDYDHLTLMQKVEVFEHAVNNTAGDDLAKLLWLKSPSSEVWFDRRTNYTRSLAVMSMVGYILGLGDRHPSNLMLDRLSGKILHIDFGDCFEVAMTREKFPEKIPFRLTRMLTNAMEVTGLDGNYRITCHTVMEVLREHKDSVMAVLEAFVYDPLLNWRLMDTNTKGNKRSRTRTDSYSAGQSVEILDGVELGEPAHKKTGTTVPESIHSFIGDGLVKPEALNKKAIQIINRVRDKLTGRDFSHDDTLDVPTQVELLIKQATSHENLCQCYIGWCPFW

| Compound | IC50 |
| --- | --- |
| CNC(=O)CS(=O)(=O)Cc1cc(N2CCOC[C@@H]2C)nc(-c2ccc(NC(=O)NC)cc2)n1 [Example 26, N-Methyl-2-[[2-[4-(methylcarbamoylamino)phenyl]-6-[(3S)-3-methylmorpholin-4-yl]pyrimidin-4-yl]methylsulfonyl]acetamide] | 29 nM |
| C[C@H]1COCCN1c1cc(C(C)(C)O)nc(-c2ccc(NC(=O)NCc3cnn(C)c3)cc2)n1 [Example 38, 1-[4-[4-(2-Hydroxypropan-2-yl)-6-[(3S)-3-methylmorpholin-4-yl]pyrimidin-2-yl]phenyl]-3-[(1-methylpyrazol-4-yl)methyl]urea] | 1300 nM |
| C[C@H]1COCCN1c1cc(CS(C)(=O)=O)nc(-c2cccc(NC(=O)Nc3ccccc3)c2)n1 [Example 3c, 1-[3-[4-[(3S)-3-Methylmorpholin-4-yl]-6-(methylsulfonylmethyl)pyrimidin-2-yl]phenyl]-3-phenyl-urea] | 3300 nM |
| CC(CO)NC(=O)Nc1ccc(-c2nc(CS(C)(=O)=O)cc(N3CCOC[C@@H]3C)n2)cc1 (stereo partly drawn) [Example 35, 3-(1-Hydroxypropan-2-yl)-1-[4-[4-[(3S)-3-methylmorpholin-4-yl]-6-(methylsulfonylmethyl)pyrimidin-2-yl]phenyl]urea] | 64 nM |
| C[C@H]1COCCN1c1cc(CS(C)(=O)=O)nc(-c2ccc(NC(=O)Nc3ccccc3)c(F)c2)n1 [Example 1g, 1-[2-fluoro-4-[4-[(3S)-3-methylmorpholin-4-yl]-6-(methylsulfonylmethyl)pyrimidin-2-yl]phenyl]-3-phenyl-urea] | 960 nM |
| C[C@H]1COCCN1c1cc(CN2CCN(C)CC2)nc(-c2ccc(NC(=O)NCc3cnn(C)c3)cc2)n1 [Example 52, 1-[4-[4-[(3S)-3-Methylmorpholin-4-yl]-6-[(4-methylpiperazin-1-yl)methyl]pyrimidin-2-yl]phenyl]-3-[(1-methylpyrazol-4-yl)methyl]urea] | 1400 nM |
| CCNC(=O)Nc1ccc(-c2nc(CS(C)(=O)=O)cc(N3CCOC[C@@H]3C)n2)cc1 [Example 1, 1-Ethyl-3-[4-[4-[(3S)-3-methylmorpholin-4-yl]-6-(methylsulfonylmethyl)pyrimidin-2-yl]phenyl]urea] | 6.2 nM |
| C[C@H]1COCCN1c1cc(CN2CCOCC2)nc(-c2ccc(NC(=O)Nc3ccccc3)cc2)n1 [Example 27, 1-[4-[4-[(3S)-3-Methylmorpholin-4-yl]-6-(morpholin-4-ylmethyl)pyrimidin-2-yl]phenyl]-3-phenyl-urea] | 190 nM |
| CC(C)S(=O)(=O)Cc1cc(N2CCOC[C@@H]2C)nc(-c2ccc(NC(=O)N(C)C)cc2)n1 [Example 14, 1,1-Dimethyl-3-[4-[4-[(3S)-3-methylmorpholin-4-yl]-6-(propan-2-ylsulfonylmethyl)pyrimidin-2-yl]phenyl]urea] | 420 nM |
| C[C@H]1COCCN1c1cc(CO)nc(-c2ccc(NC(=O)N(C)C)cc2)n1 [Example 10, 3-[4-[4-(Hydroxymethyl)-6-[(3S)-3-methylmorpholin-4-yl]pyrimidin-2-yl]phenyl]-1,1-dimethyl-urea] | 19000 nM |

The remaining lines, values ahead:

| IC50 | Compound |
| --- | --- |
| 510 nM | C[C@H]1COCCN1c1cc(C(C)(C)S(C)(=O)=O)nc(-c2ccc(NC(=O)NC3CCN(C)CC3)cc2)n1 [Example 21j, 1-[4-[4-[(3S)-3-methylmorpholin-4-yl]-6-(2-methylsulfonylpropan-2-yl)pyrimidin-2-yl]phenyl]-3-(1-methyl-4-piperidyl)urea] |
| 450 nM | C[C@H]1COCCN1c1cc(CS(C)(=O)=O)nc(-c2cnc(NC(=O)Nc3ccccc3)s2)n1 [Example 46c, 1-[5-[4-[(3S)-3-methylmorpholin-4-yl]-6-(methylsulfonylmethyl)pyrimidin-2-yl]-1,3-thiazol-2-yl]-3-phenyl-urea] |
| 270 nM | COCCNC(=O)Nc1ccc(-c2nc(CS(=O)(=O)C(C)C)cc(N3CCOC[C@@H]3C)n2)cc1 [Example 20u, 3-(2-methoxyethyl)-1-[4-[4-[(3S)-3-methylmorpholin-4-yl]-6-(propan-2-ylsulfonylmethyl)pyrimidin-2-yl]phenyl]urea] |
| 160 nM | CNC(=O)Nc1ccc(-c2nc(CS(C)(=O)=O)cc(N3CCOC[C@@H]3C)n2)cc1C [Example 8j, 3-Methyl-1-[2-methyl-4-[4-[(3S)-3-methylmorpholin-4-yl]-6-(methylsulfonylmethyl)pyrimidin-2-yl]phenyl]urea] |
| 33 nM | CNC(=O)Nc1ccc(-c2nc(CS(=O)(=O)c3ccc(F)cc3)cc(N3CCOC[C@@H]3C)n2)cc1 [Example 19b, 1-[4-[4-[(4-fluorophenyl)sulfonylmethyl]-6-[(3S)-3-methylmorpholin-4-yl]pyrimidin-2-yl]phenyl]-3-methyl urea] |
| 430 nM | C[C@H]1COCCN1c1cc(C(C)(C)S(C)(=O)=O)nc(-c2ccc(NC(=O)NCc3cnn(C)c3)nc2)n1 [Example 24bi, 1-[5-[4-[(3S)-3-methylmorpholin-4-yl]-6-(2-methylsulfonylpropan-2-yl)pyrimidin-2-yl]pyridin-2-yl]-3-[(1-methylpyrazol-4-yl)methyl]urea] |
| 180 nM | C[C@H]1COCCN1c1cc(CNC2CC2)nc(-c2ccc(NC(=O)Nc3ccccc3)cc2)n1 [Example 30b, 1-[4-[4-[(cyclopropylamino)methyl]-6-[(3S)-3-methylmorpholin-4-yl]pyrimidin-2-yl]phenyl]-3-phenyl-urea] |
| 270 nM | CNC(=O)Nc1ccc(-c2nc(CS(=O)(=O)c3ccccn3)cc(N3CCOC[C@@H]3C)n2)cc1 [Example 33f, 3-methyl-1-[4-[4-[(3S)-3-methylmorpholin-4-yl]-6-(pyridin-2-ylsulfonylmethyl)pyrimidin-2-yl]phenyl]urea] |
| 850 nM | C[C@H]1COCCN1c1cc(CS(C)(=O)=O)nc(-c2cnc(NC(=O)Nc3ccc(F)cc3)s2)n1 [Example 46d, 3-(4-fluorophenyl)-1-[5-[4-[(3S)-3-methylmorpholin-4-yl]-6-(methylsulfonylmethyl)pyrimidin-2-yl]-1,3-thiazol-2-yl]urea] |
| 1000 nM | CN(C)C(=O)CNC(=O)Nc1ccc(-c2nc(CS(C)(=O)=O)cc(N3CCOCC3)n2)cc1 [Example 45z, N,N-dimethyl-2-[[4-[4-(methylsulfonylmethyl)-6-morpholin-4-yl-pyrimidin-2-yl]phenyl]carbamoylamino] acetamide] |
| 14 nM | C[C@H]1COCCN1c1cc(CN2CCN(C)CC2)nc(-c2ccc(NC(=O)NC3CC3)cc2)n1 [Example 49b, 3-cyclopropyl-1-[4-[4-[(3S)-3-methylmorpholin-4-yl]-6-[(4-methylpiperazin-1-yl)methyl]pyrimidin-2-yl]phenyl]urea] |
| 710 nM | C[C@H]1COCCN1c1cc(CS(C)(=O)=O)nc(-c2cnc(NC(=O)N(C)C3CC3)s2)n1 [Example 46e, 1-cyclopropyl-1-methyl-3-[5-[4-[(3S)-3-methylmorpholin-4-yl]-6-(methylsulfonylmethyl)pyrimidin-2-yl]-1,3-thiazol-2-yl]urea] |
| 170 nM | O=C(Nc1ccc(-c2nc(CS(=O)(=O)c3ccccc3)cc(N3CCOCC3)n2)cc1)NC1CC1 [Example 20b, 1-[4-[4-(benzenesulfonylmethyl)-6-morpholin-4-yl-pyrimidin-2-yl]phenyl]-3-cyclopropyl-urea] |
| 0.31 nM | CNC(=O)Nc1ccc(-c2nc(CS(=O)(=O)c3ccc(N)cc3)cc(N3CCOC[C@@H]3C)n2)cc1 [Example 33d, 1-[4-[4-[(4-aminophenyl)sulfonylmethyl]-6-[(3S)-3-methylmorpholin-4-yl]pyrimidin-2-yl]phenyl]-3-methyl-urea] |
| 560 nM | CS(=O)(=O)Cc1cc(N2CCOCC2)nc(-c2ccc(NC(=O)NCCN3CCNC3=O)cc2)n1 [Example 45e, 1-[4-[4-(methylsulfonylmethyl)-6-morpholin-4-yl-pyrimidin-2-yl]phenyl]-3-[2-(2-oxoimidazolidin-1-yl)ethyl]urea] |
| 420 nM | CS(=O)(=O)Cc1cc(N2CCOCC2)nc(-c2ccc(NC(=O)Nc3ccc(Cl)cc3)cc2)n1 [Example 7b, 3-(4-chlorophenyl)-1-[4-[4-(methylsulfonylmethyl)-6-morpholin-4-yl-pyrimidin-2-yl]phenyl]urea] |
| 1600 nM | CS(=O)(=O)Cc1cc(N2CCOCC2)nc(-c2ccc(NC(=O)N3CCCC3)cc2)n1 [Example 45f, N-[4-[4-(methylsulfonylmethyl)-6-morpholin-4-yl-pyrimidin-2-yl]phenyl]pyrrolidine-1-carboxamide] |
| 420 nM | CC(=O)NCCNC(=O)Nc1ccc(-c2nc(CS(C)(=O)=O)cc(N3CCOCC3)n2)cc1 [Example 8b, N-[2-[[4-[4-(methylsulfonylmethyl)-6-morpholin-4-yl-pyrimidin-2-yl]phenyl]carbamoylamino]ethyl]acetamide] |
| 900 nM | CS(=O)(=O)Cc1cc(N2CCOCC2)nc(-c2ccc(NC(=O)NCCN3CCOCC3)cc2)n1 [Example 45o, 1-[4-[4-(methylsulfonylmethyl)-6-morpholin-4-yl-pyrimidin-2-yl]phenyl]-3-(2-morpholin-4-ylethyl)urea] |
| 180 nM | C[C@H]1COCCN1c1cc(C(=O)N2CCN(C)CC2)nc(-c2ccc(NC(=O)NC3CC3)cc2)n1 [Example 36b, 3-cyclopropyl-1-[4-[4-[(3S)-3-methylmorpholin-4-yl]-6-(4-methylpiperazine-1-carbonyl)pyrimidin-2-yl]phenyl]urea] |
| 960 nM | CC(C)NC(=O)Nc1cccc(-c2nc(CS(C)(=O)=O)cc(N3CCOC[C@@H]3C)n2)c1 [Example 8g, 1-[3-[4-[(3S)-3-Methylmorpholin-4-yl]-6-(methylsulfonylmethyl)pyrimidin-2-yl]phenyl]-3-propan-2-yl-urea] |
| 76 nM | C[C@H]1COCCN1c1cc(C(C)(C)S(C)(=O)=O)nc(-c2ccc(NC(=O)NCCN(C)C)cc2)n1 [Example 21i, 3-(2-dimethylaminoethyl)-1-[4-[4-[(3S)-3-methylmorpholin-4-yl]-6-(2-methylsulfonylpropan-2-yl)pyrimidin-2-yl]phenyl]urea] |
| 570 nM | C[C@H]1COCCN1c1cc(CN(C)C2CC2)nc(-c2ccc(NC(=O)NCc3cnn(C)c3)cc2)n1 [Example 52b, 1-[4-[4-[(cyclopropyl-methyl-amino)methyl]-6-[(3S)-3-methylmorpholin-4-yl]pyrimidin-2-yl]phenyl]-3-[(1-methylpyrazol-4-yl)methyl]urea] |
